Data on 6 compounds can be found in patent publication US12398132B2, “Derivatives of 4-(imidazo[1,2-a]pyridin-3-yl)-n-(pyridinyl)pyrimidin-2-amine as therapeutic agents” (AUCENTRA THERAPEUTICS PTY LTD, priority 2019, dated 2025).

Substitutions are numbered along the chain they refer to. Where two headings read alike, the source gives them in different places.

Assay [1] deals with T1, FLT3(WT) (Homo sapiens, UniProt P36888).
T1 sequence (P36888 27-993): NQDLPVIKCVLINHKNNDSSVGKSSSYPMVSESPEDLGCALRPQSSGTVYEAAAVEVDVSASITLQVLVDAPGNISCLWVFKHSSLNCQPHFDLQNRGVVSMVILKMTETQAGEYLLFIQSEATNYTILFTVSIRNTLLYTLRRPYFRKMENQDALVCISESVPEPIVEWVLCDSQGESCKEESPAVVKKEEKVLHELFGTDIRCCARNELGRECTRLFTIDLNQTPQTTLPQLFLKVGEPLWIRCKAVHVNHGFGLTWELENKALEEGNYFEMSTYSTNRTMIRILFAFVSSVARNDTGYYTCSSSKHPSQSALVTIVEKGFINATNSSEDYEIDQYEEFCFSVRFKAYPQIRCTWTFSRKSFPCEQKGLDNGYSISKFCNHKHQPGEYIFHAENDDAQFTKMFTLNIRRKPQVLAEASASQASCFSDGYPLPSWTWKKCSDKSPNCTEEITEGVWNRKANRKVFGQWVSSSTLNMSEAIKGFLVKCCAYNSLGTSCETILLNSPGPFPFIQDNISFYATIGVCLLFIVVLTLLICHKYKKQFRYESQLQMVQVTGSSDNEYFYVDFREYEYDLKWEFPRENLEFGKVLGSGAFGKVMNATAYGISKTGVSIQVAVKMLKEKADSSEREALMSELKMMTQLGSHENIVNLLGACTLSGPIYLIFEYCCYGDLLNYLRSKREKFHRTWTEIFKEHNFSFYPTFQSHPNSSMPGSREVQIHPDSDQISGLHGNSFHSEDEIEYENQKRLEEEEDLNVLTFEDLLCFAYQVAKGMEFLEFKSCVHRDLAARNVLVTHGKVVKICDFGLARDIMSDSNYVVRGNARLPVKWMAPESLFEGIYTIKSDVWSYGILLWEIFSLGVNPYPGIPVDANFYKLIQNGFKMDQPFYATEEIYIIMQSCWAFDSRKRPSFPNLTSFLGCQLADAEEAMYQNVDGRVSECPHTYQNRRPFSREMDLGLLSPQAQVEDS
The assay can be described thus: ADP Glo kinase assay, FLT3(WT). Type of assay: biochemical. The following applies: for Ki: apparent Ki calculated from Km (ATP) and IC50, read-out: FLT3 inhibition Ki.
Protocol: (§1) Inhibition of FLT3(WT), FLT3(ITD) and FLT3(D835Y) and CDKs were determined using ADP Glo Kinase assays (Promega Corporation, Madison, WI, USA). […] The kinase reactions are run for an optimised time period (FLT3-WT: 120 min, FLT3-ITD: 80 min, FLT3-D835Y: 100 min) at room temperature and then the reaction was stopped by adding 5 μL of ADP Glo reagent. […] Positive and negative controls were performed in 0.5% DMSO in the presence and absence of each FLT3 kinase, respectively. […] Half-maximal inhibition (IC50) values were calculated using a 4-parameter logistic non-linear regression model with Graphpad prism (Version 6.0). Apparent inhibition constants (Ki) values were calculated from Km (ATP) and IC50 values for the respective kinases.

For assay [2], the target named is CDK1B (Homo sapiens, UniProt P06493).
CDK1B, sequence (P06493 whole entry): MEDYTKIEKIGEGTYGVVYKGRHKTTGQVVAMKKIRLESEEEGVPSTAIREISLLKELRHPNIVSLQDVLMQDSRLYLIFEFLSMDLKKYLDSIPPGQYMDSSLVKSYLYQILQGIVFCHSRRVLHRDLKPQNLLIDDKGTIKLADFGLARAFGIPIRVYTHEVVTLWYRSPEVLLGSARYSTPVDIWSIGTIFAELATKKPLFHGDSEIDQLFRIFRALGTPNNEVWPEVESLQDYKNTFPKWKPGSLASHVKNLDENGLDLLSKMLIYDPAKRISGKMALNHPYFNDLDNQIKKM
CDK1B, sequence (P14635 whole entry partner): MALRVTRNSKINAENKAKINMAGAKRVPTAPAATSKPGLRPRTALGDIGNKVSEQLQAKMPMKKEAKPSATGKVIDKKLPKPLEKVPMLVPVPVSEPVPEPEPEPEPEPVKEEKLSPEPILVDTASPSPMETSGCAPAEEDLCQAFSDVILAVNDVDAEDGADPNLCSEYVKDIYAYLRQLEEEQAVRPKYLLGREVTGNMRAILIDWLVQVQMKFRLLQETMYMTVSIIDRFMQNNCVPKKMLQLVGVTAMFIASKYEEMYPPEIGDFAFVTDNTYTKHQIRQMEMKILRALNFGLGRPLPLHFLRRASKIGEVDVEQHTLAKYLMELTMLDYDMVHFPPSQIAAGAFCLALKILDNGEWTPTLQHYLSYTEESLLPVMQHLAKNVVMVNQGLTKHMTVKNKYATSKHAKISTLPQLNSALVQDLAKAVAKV
For assay [3], the target named is CDK2E1 (Homo sapiens, UniProt P24941). The following applies: 1 µM.
The target of assay [4] is CDK7HMAT1 (Homo sapiens, UniProt P50613).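 Also: kinase activity measured with an ADP-Glo luminescent kinase assay.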
CDK7HMAT1, sequence (P50613 whole entry): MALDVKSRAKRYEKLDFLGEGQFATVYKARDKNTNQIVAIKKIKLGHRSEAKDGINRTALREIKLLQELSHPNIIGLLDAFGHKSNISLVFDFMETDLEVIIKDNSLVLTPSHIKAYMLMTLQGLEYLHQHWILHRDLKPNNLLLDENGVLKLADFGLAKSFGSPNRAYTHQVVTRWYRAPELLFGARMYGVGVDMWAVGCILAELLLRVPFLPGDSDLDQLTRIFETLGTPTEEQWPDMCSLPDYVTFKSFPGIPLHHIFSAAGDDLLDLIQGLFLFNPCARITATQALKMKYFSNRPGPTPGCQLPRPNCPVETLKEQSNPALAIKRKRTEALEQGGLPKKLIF
CDK7HMAT1, sequence (P51946 whole entry partner): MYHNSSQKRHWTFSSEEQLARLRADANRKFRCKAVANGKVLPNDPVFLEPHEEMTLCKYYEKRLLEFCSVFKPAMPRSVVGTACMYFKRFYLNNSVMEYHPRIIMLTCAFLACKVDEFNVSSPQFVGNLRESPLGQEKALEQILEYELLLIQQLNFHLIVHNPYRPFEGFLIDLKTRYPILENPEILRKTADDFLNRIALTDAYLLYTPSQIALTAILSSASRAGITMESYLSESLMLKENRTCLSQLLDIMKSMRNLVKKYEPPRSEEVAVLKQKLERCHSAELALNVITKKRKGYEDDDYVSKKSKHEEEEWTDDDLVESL
CDK7HMAT1, sequence (P51948 whole entry partner): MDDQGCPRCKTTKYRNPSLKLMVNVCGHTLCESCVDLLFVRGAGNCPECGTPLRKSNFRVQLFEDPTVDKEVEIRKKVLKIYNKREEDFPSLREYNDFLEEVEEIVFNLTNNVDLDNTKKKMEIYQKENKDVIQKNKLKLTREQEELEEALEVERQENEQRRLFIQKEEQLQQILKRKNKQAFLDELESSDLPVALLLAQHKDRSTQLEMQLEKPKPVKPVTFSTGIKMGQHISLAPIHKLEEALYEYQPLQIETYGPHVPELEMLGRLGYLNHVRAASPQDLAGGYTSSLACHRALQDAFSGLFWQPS
Protocol: as §1
Assay [5] addresses T2, FLT3(D835Y) (Homo sapiens, UniProt P36888, D835Y).
T2 sequence (P36888 27-993 D835Y): T1 sequence (P36888 27-993) with D809Y
The assay can be described thus: ADP Glo kinase assay, FLT3(D835Y). It is filed as biochemical. The note with it: apparent Ki calculated from Km (ATP) and IC50, read-out: FLT3 inhibition Ki.
Protocol: as §1

Assay [6] concerns MV-4-11. The assay can be described thus: Proliferation assay (resazurin/MTT), MV-4-11. It is filed as cell-based. The following applies: Homo sapiens, MV4-11, read-out: 72 h Growth inhibition GI50, MV-4-11 cells.
Assay [7] deals with CDK6/D3 (Homo sapiens, UniProt Q00534). The assay can be described thus: ADP Glo kinase assay, CDK6/D3. The following applies: CDK6D3; for remaining activity at 10 µM: compound at 10 μM, read-out: residual enzymatic activity (%) at 10 μM; for remaining activity at 1 µM: compound at 1 μM (values marked *), read-out: residual enzymatic activity (%) at 1 μM*. Type of assay: biochemical.
CDK6/D3, sequence (Q00534 whole entry, species assumed): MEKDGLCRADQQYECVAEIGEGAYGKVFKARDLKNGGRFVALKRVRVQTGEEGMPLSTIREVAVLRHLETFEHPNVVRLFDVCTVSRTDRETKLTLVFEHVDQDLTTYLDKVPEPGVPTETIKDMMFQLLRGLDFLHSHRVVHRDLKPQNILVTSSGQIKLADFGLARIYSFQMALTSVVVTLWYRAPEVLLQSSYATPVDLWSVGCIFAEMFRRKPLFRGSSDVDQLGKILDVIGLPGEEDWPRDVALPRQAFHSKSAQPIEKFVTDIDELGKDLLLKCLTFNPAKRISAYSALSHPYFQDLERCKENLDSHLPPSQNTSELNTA
CDK6/D3, sequence (P30281 whole entry partner, species assumed): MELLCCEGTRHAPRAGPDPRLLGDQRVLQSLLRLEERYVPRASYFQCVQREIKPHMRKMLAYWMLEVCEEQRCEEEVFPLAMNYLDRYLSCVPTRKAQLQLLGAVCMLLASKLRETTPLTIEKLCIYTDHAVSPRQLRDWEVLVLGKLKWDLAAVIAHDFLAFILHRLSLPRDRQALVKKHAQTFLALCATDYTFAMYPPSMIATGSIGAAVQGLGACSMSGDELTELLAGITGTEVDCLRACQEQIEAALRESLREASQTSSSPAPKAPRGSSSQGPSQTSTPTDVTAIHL

Assay [8] addresses T3, FLT3(ITD) (Homo sapiens, UniProt P36888).
T3 sequence (P36888 1-993): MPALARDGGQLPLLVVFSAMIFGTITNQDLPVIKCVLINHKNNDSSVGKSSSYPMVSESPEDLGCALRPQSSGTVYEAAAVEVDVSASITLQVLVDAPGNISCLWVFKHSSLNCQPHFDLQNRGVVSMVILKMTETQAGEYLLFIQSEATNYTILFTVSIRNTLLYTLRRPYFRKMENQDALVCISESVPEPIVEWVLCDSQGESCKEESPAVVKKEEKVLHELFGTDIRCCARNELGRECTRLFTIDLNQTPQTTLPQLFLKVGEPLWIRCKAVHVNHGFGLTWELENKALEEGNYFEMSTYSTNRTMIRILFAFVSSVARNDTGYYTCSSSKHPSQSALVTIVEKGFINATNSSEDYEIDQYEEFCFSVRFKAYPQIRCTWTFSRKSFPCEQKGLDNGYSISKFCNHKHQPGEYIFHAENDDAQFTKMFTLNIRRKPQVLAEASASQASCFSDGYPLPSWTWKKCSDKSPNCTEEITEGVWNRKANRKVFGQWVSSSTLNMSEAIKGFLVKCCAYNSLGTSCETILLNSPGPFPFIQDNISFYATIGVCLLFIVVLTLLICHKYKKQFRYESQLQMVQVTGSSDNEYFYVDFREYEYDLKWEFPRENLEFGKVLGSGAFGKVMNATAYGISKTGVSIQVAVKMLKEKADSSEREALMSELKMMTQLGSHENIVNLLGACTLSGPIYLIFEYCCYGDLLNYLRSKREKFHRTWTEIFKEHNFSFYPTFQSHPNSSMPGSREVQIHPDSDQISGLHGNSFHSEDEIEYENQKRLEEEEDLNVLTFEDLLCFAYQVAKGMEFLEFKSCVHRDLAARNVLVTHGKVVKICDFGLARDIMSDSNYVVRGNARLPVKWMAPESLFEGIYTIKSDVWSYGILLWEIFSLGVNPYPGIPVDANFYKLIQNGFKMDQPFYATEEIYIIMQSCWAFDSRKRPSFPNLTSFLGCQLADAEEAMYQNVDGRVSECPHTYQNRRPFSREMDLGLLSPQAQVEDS
The assay can be described thus: ADP Glo kinase assay, FLT3(ITD). Type of assay: biochemical. The note with it: apparent Ki calculated from Km (ATP) and IC50, read-out: FLT3 inhibition Ki.
Protocol: as §1

Assay [9] deals with U937. The assay can be described thus: Proliferation assay (resazurin/MTT), U937. Type of assay: cell-based. The following applies: Homo sapiens, U-937, read-out: 72 h Growth inhibition GI50, U937 cells.
In assay [10] the target is CDK9/CyclinT1 (Homo sapiens, UniProt P50750). The assay can be described thus: ADP Glo kinase assay, CDK9/CyclinT1. It is filed as biochemical. The following applies: CDK9T1; for remaining activity at 10 µM: compound at 10 μM, read-out: residual enzymatic activity (%) at 10 μM. In general terms: ADP-Glo first removes unused ATP, then detects ADP through luciferase.
CDK9/CyclinT1, sequence (P50750 whole entry, species assumed): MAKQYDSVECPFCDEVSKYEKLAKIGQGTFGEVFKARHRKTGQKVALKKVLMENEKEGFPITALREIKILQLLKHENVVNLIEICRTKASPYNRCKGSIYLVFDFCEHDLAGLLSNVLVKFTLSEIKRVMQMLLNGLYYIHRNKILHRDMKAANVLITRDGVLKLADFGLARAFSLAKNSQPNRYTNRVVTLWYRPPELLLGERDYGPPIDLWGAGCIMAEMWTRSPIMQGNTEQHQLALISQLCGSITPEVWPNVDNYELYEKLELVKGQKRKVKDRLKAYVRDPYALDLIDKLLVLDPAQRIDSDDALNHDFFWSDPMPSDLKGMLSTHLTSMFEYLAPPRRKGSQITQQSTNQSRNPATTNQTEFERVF
CDK9/CyclinT1, sequence (O60563 whole entry partner, species assumed): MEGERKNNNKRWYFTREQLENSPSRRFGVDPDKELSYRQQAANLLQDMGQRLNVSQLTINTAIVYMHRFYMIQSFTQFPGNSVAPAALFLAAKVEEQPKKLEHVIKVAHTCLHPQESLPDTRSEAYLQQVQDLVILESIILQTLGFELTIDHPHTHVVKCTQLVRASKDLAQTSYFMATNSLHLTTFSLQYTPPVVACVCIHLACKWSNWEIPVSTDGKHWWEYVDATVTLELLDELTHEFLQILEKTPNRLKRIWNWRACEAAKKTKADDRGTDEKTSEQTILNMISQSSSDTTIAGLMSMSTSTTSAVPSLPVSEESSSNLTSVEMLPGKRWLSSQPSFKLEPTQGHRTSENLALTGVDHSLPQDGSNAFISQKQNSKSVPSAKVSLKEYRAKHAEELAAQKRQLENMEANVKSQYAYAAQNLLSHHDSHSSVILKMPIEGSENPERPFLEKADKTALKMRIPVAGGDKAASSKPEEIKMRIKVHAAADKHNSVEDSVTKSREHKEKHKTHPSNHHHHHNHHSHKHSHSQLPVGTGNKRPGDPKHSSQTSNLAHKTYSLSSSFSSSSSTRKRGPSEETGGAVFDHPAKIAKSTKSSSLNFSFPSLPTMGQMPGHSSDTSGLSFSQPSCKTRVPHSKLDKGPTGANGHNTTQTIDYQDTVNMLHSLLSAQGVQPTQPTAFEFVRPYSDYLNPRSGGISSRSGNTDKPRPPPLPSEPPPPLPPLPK
Assay [11] deals with CDK4/D1 (Homo sapiens, UniProt P11802). The assay can be described thus: ADP Glo kinase assay, CDK4/D1. It is filed as biochemical. The note with it: CDK4D1; for remaining activity at 10 µM: compound at 10 μM, read-out: residual enzymatic activity (%) at 10 μM; for remaining activity at 1 µM: compound at 1 μM (values marked *), read-out: residual enzymatic activity (%) at 1 μM*.
CDK4/D1, sequence (P11802 whole entry, species assumed): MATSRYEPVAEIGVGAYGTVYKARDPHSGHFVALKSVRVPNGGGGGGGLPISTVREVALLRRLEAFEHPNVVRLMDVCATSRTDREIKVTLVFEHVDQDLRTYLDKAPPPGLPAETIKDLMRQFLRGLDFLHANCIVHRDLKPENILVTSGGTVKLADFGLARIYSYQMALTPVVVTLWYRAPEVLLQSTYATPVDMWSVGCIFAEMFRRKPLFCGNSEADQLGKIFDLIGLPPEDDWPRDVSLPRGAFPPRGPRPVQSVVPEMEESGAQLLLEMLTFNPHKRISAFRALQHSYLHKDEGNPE
CDK4/D1, sequence (P24385 whole entry partner, species assumed): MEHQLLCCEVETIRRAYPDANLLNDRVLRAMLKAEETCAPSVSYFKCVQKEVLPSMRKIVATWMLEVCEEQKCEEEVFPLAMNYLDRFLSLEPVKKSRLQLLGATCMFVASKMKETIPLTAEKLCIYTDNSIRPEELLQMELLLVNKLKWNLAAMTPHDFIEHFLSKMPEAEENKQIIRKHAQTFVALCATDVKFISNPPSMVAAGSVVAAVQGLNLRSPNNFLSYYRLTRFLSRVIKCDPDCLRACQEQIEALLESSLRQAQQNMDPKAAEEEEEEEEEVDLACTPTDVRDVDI
Protocol: Inhibition of FLT3(WT), FLT3(ITD) and FLT3(D835Y) and CDKs were determined using ADP Glo Kinase assays (Promega Corporation, Madison, WI, USA). […] Similarly, kinase reaction for CDK4/D1 and CDK6/D3 was performed with reaction buffer (40 nM Tris base pH 7.5, 20 mM MgCl2, 0.4 mM DTT), 0.1 mg/ml BSA and RB-CTF substrate (retinoblastoma protein1 C-terminal fraction). For CDK9/CyclinT1, the kinase reaction was performed with the standard assay buffer and Kinase Dilution Buffer and RBER-IRStide substrate. Half-maximal inhibition (IC50) values were calculated using a 4-parameter logistic non-linear regression model with Graphpad prism (Version 6.0). Apparent inhibition constants (Ki) values were calculated from Km (ATP) and IC50 values for the respective kinases.

Broadly, the GI50 is the concentration that inhibits growth by half. For `CC(=O)N1CCN(c2ccc(Nc3nccc(-c4cnc5ccc(Cl)cn45)n3)nc2)CC1` [Cmpd 9, 1-(4-(6-((4-(6-Chloroimidazo[1,2-a]pyridin-3-yl)pyrimidin-2-yl)amino)pyridin-3-yl)piperazin-1-yl)ethan-1-one], the Ki in [1] was 117 nM; in assay [5], 9 nM; in assay [8] it was 30 nM. Also, the activity in assay [2] (10 µM) was determined as 94%; in assay [3], 64%; in [4] (10 µM), 76%. In addition, the values for the 50% growth inhibitory concentration (GI50) in assay [6] and in assay [9] were 15 nM and 797 nM, respectively. Besides, the remaining activity at 10 µM in assay [7] was determined as 32%; in assay [10], 28%; in assay [11], 46%.
Regarding `Brc1ccc(Nc2nccc(-c3cnc4ccccn34)n2)nc1` [Cmpd 47, N-(5-Bromopyridin-2-yl)-4-(imidazo[1,2-a]pyridin-3-yl)pyrimidin-2-amine], the figures for the Ki in assay [1], in assay [5] and in [8] were more than 500 nM, more than 500 nM and 489 nM, respectively. Further, the activity stood at 79% in assay [2] (1 µM) and 103% in [3]. Also, the GI50 in [6] is 545 nM; in assay [9], 645 nM. The remaining activity at 1 µM amounted to 85% in assay [7] and 72% in [11]. The remaining activity at 10 µM in assay [10] was 62%.
For `CN1CCN(c2ccc(Nc3nccc(-c4cnc5ccc(Br)cn45)n3)nc2)CC1` [Cmpd 45, 4-(6-Bromoimidazo[1,2-a]pyridin-3-yl)-N-(5-(4-methylpiperazin-1-yl)pyridin-2-yl)pyrimidin-2-amine], the Ki is 25 nM in assay [1]; 13 nM in assay [5]; 15 nM in [8]; 111 nM in assay [10] (apparent Ki calculated from Km (ATP) and IC50, read-out: CDK inhibition Ki). The activity in assay [2] (1 µM) was found to be 71%; in assay [3], 49%. In addition, the GI50 is 23 nM in assay [6] and 1960 nM in [9]. Also, the remaining activity at 1 µM was 46% in [7] and 34% in assay [11].
As for `CS(=O)(=O)N1CCN(c2ccc(Nc3nccc(-c4cnc5ccc(Br)cn45)n3)nc2)CC1` [Cmpd 50, 4-(6-Bromoimidazo[1,2-a]pyridin-3-yl)-N-(5-(4-(methylsulfonyl)piperazin-1-yl)pyridin-2-yl)pyrimidin-2-amine], the figures for the Ki in assay [1], in [5] and in assay [8] were 35 nM, 15 nM and 180 nM, respectively. The results for the activity in assay [2] (1 µM), in [3] and in [4] (1 µM) were 62%, 74% and 57%, respectively. Further, the values for the GI50 in [6] and in assay [9] were 7 nM and 127 nM, respectively. Also, the remaining activity at 1 µM was determined as 63% in assay [7]; 48% in assay [10] (compound at 1 μM (values marked *), read-out: residual enzymatic activity (%) at 1 μM*); 40% in [11].
For `CC(=O)N1CCN(c2ccc(Nc3nccc(-c4cnc5ccc(-c6cncnc6)cn45)n3)nc2)CC1` [Cmpd 16, 1-(4-(6-((4-(6-(Pyrimidin-5-yl)imidazo[1,2-a]pyridin-3-yl)pyrimidin-2-yl)amino)pyridin-3-yl)piperazin-1-yl)ethan-1-one], in assay [1] (compound at 1 μM, read-out: residual enzymatic activity (%) at 1 μM), the remaining activity at 1 µM is 23%. For the same compound, the activity in assay [2] (10 µM) came to 81%; in [3], 90%; in assay [4] (10 µM), 60%. The Ki in [5] was 48 nM; in [8], 426 nM. The GI50 came to 18 nM in assay [6] and 2920 nM in assay [9]. Also, the remaining activity at 10 µM worked out at 99% in [7] and 78% in [11].
`Ic1ccc(Nc2nccc(-c3cnc4ccccn34)n2)nc1` [Cmpd 53, 4-(Imidazo[1,2-a]pyridin-3-yl)-N-(5-iodopyridin-2-yl)pyrimidin-2-amine]: the Ki in assay [1], in assay [5] and in [8] was more than 500 nM in each case. Also, the activity in assay [3] turned out to be 99%. The GI50 in [6] amounted to 382 nM; in assay [9] it was 2500 nM.
